Assay results from patent publication US11213517B2, “Pharmaceutical combination comprising a T-type calcium channel blocker” (IDORSIA PHARMACEUTICALS LTD, priority 2016, dated 2022).
Where “and” joins values, the source holds several entries; their conditions need not be identical. Equal entries are not always repeated. Where two headings read alike, the source gives them in different places.

Assays:
[1] = tested on: audiogenic seizure-sensitive juvenile DBA/2J mice; assay: Audiogenic seizure-sensitive juvenile DBA/2J mouse model of generalized tonic-clonic seizures; type: in vivo; design: key: 0 none, 1 wild running, 2 clonus, 3 hind-limb tonic extension; details: COMPOUND 1 10 mg/kg 3 h + vehicle 1 h before stimulus, oral gavage; mean ± SEM; 10 mg/kg
Text: Audiogenic Seizure-Sensitive Juvenile DBA/2J Mouse Model of Generalized Tonic-Clonic Seizures
The inbred DBA/2J mouse strain carries an increased general susceptibility for acute generalized convulsive seizures induced by either pharmacological, electrical or, as juvenile, auditory stimuli. At the age of 17 to 28 days (juvenile), they show tonic-clonic convulsions when exposed to a loud tone.
Male juvenile DBA/2J mice (22-24 days old, body weight between 6.6 and 14.5 grams) were used. Each mouse was placed individually in the exposure chamber, an hemispheric acrylic glass dome (diameter: 50 cm) within a sound-attenuated box. After 60 seconds of habituation, an auditory stimulus of mixed frequency tone (15-20 kHz at 110 dB) was played from a speaker placed on the top center of the dome.
The sound-attenuated box was equipped with lights and a camera system in order to observe and record the behavioral seizure response classified as following: • stage 0, no response • stage 1, wild running • stage 2, clonus • stage 3, tonic extension of the hind limbs.
(§1) Different combination efficacy experiments are performed. […] Each experiment consists of four treatment groups: • 1. Vehicle (10% Polyethylene glycol400 (PEG400)/90% methylcellulose (0.5% in water; MC0.5%)), 3 h before exposure to the auditory stimulus+vehicle, 1 h before exposure to the auditory stimulus; • 2. COMPOUND 1 (in 10% PEG400/90% MC0.5%), 3 h before exposure to the auditory stimulus+vehicle, 1 h before exposure to the auditory stimulus; • 3. Vehicle, 3 h before exposure to the auditory stimulus+AED (in 10% PEG400/90% MC0.5%), 1 h before exposure to the auditory stimulus; and • 4. COMPOUND 1 (in 10% PEG400/90% MC0.5%), 3 h before exposure to the auditory stimulus+AED (in 10% PEG400/90% MC0.5%), 1 h before exposure to the auditory stimulus.

[2] = Plasma and brain concentrations of drugs at the end of the audiogenic seizure experiment (LC-MS); type: in vivo, mouse; details: for plasma and brain concentrations after administration of the compounds alone or in combination: juvenile DBA/2J mice; for concentration at 3 h: DBA/2J, mouse
Protocol: Briefly, blood was sampled from the vena cava caudalis with a syringe pre-filled with EDTA (ethylenediamine tetraacetic acid) as anticoagulant and centrifuged to yield plasma (for 10 minutes, at 4° C. and 5000 rpm (rounds per minute)). Brain was sampled and homogenized into one volume of cold phosphate buffer (pH 7.4). Following extraction with methanol, concentrations of the compound in plasma and brain were determined using liquid chromatography coupled to mass spectrometry.
as §1

[3] = analyte COMPOUND 1, COMPOUND 1 10 mg/kg 3 h + vehicle 1 h before stimulus, oral gavage, mean ± SEM, 10 mg/kg

N#Cc1ccc(Cn2ccc(NC(=O)Cc3ccc(C4(C(F)(F)F)CC4)cc3)n2)nc1 [COMPOUND 1, N-[1-(5-Cyano-pyridin-2-ylmethyl)-1H-pyrazol-3-yl]-2-[4-(1-trifluoromethyl-cyclopropyl)-phenyl]-acetamide]
Seizure stage (maximal seizure stage observed during exposure to auditory stimulus) [1]: 3 and 2.7 ± 0.3 and 3.0 ± 0.0 and 2.9 ± 0.1 and 2.7 ± 0.2 and 2.8 ± 0.2
plasma and brain concentrations after administration of the compounds alone or in combination ([2]; COMPOUND 1 and LEV): similar
plasma and brain concentrations after administration of the compounds alone or in combination ([2]; COMPOUND 1 and lamotrigine): similar
plasma and brain concentrations after administration of the compounds alone or in combination ([2]; COMPOUND 1 and valproic acid): similar
concentration at 3 h ([2]; brain, oral, analyte COMPOUND 1, COMPOUND 1 10 mg/kg 3 h + LEV 1 mg/kg 1 h before stimulus, oral gavage, mean ± SEM, read-out: Brain concentration total): 1930 ± 100 ng/g
concentration at 3 h ([2]; brain, oral, analyte COMPOUND 1, COMPOUND 1 10 mg/kg 3 h + LEV 3 mg/kg 1 h before stimulus, oral gavage, mean ± SEM, read-out: Brain concentration total): 2520 ± 190 ng/g
concentration at 3 h ([2]; brain, oral, analyte COMPOUND 1, COMPOUND 1 10 mg/kg 3 h + LEV 10 mg/kg 1 h before stimulus, oral gavage, mean ± SEM, read-out: Brain concentration total): 2030 ± 137 ng/g
concentration at 3 h ([2]; brain, oral, analyte COMPOUND 1, COMPOUND 1 10 mg/kg 3 h + LEV 50 mg/kg 1 h before stimulus, oral gavage, mean ± SEM, read-out: Brain concentration total): 1810 ± 93 ng/g
concentration at 3 h ([2]; brain, oral, analyte COMPOUND 1, COMPOUND 1 10 mg/kg 3 h + LTG 10 mg/kg 1 h before stimulus, oral gavage, mean ± SEM, read-out: Brain concentration total): 1420 ± 165 ng/g
concentration at 3 h ([2]; brain, oral, analyte COMPOUND 1, COMPOUND 1 10 mg/kg 3 h + VPA 100 mg/kg 1 h before stimulus, oral gavage, mean ± SEM, read-out: Brain concentration total): 2040 ± 178 ng/g
concentration at 3 h ([2]; brain, oral, analyte COMPOUND 1, COMPOUND 1 10 mg/kg 3 h + VPA 200 mg/kg 1 h before stimulus, oral gavage, mean ± SEM, read-out: Brain concentration total): 1640 ± 52 ng/g
concentration at 3 h ([2]; brain, oral, analyte COMPOUND 1, COMPOUND 1 30 mg/kg 3 h + LEV 3 mg/kg 1 h before stimulus, oral gavage, mean ± SEM, read-out: Brain concentration total): 5960 ± 330 ng/g
concentration at 3 h ([2]; brain, oral, analyte COMPOUND 1, COMPOUND 1 30 mg/kg 3 h + LEV 10 mg/kg 1 h before stimulus, oral gavage, mean ± SEM, read-out: Brain concentration total): 5470 ± 533 ng/g
concentration at 3 h ([2]; brain, oral, analyte COMPOUND 1, COMPOUND 1 30 mg/kg 3 h + LEV 50 mg/kg 1 h before stimulus, oral gavage, mean ± SEM, read-out: Brain concentration total): 4690 ± 399 ng/g
concentration at 3 h ([2]; brain, oral, analyte COMPOUND 1, COMPOUND 1 30 mg/kg 3 h + LTG 3 mg/kg 1 h before stimulus, oral gavage, mean ± SEM, read-out: Brain concentration total): 5030 ± 238 ng/g
concentration at 3 h ([2]; brain, oral, analyte COMPOUND 1, COMPOUND 1 30 mg/kg 3 h + LTG 10 mg/kg 1 h before stimulus, oral gavage, mean ± SEM, read-out: Brain concentration total): 4260 ± 350 ng/g
concentration at 3 h ([2]; brain, oral, analyte COMPOUND 1, COMPOUND 1 30 mg/kg 3 h + LTG 30 mg/kg 1 h before stimulus, oral gavage, mean ± SEM, read-out: Brain concentration total): 3290 ± 170 ng/g
concentration at 3 h ([2]; brain, oral, analyte COMPOUND 1, COMPOUND 1 30 mg/kg 3 h + VPA 30 mg/kg 1 h before stimulus, oral gavage, mean ± SEM, read-out: Brain concentration total): 5100 ± 375 ng/g
concentration at 3 h ([2]; brain, oral, analyte COMPOUND 1, COMPOUND 1 30 mg/kg 3 h + VPA 100 mg/kg 1 h before stimulus, oral gavage, mean ± SEM, read-out: Brain concentration total): 5980 ± 336 ng/g
concentration at 3 h ([2]; brain, oral, analyte COMPOUND 1, COMPOUND 1 30 mg/kg 3 h + VPA 200 mg/kg 1 h before stimulus, oral gavage, mean ± SEM, read-out: Brain concentration total): 4990 ± 245 ng/g
concentration at 3 h ([2]; brain, po, 10 mg/kg, analyte COMPOUND 1, COMPOUND 1 10 mg/kg 3 h + vehicle 1 h before stimulus, oral gavage, mean ± SEM, read-out: Brain concentration total): 1450 ± 104 ng/g
concentration at 3 h ([2]; brain, po, 30 mg/kg, analyte COMPOUND 1, COMPOUND 1 30 mg/kg 3 h + vehicle 1 h before stimulus, oral gavage, mean ± SEM, read-out: Brain concentration total): 5230 ± 487 ng/g
concentration at 3 h ([2]; plasma, oral, analyte COMPOUND 1, COMPOUND 1 10 mg/kg 3 h + LEV 1 mg/kg 1 h before stimulus, oral gavage, mean ± SEM, read-out: Plasma concentration total): 1500 ± 112 ng/mL
concentration at 3 h ([2]; plasma, oral, analyte COMPOUND 1, COMPOUND 1 10 mg/kg 3 h + LEV 3 mg/kg 1 h before stimulus, oral gavage, mean ± SEM, read-out: Plasma concentration total): 1600 ± 111 ng/mL
concentration at 3 h ([2]; plasma, oral, analyte COMPOUND 1, COMPOUND 1 10 mg/kg 3 h + LEV 10 mg/kg 1 h before stimulus, oral gavage, mean ± SEM, read-out: Plasma concentration total): 1590 ± 142 ng/mL
concentration at 3 h ([2]; plasma, oral, analyte COMPOUND 1, COMPOUND 1 10 mg/kg 3 h + LEV 50 mg/kg 1 h before stimulus, oral gavage, mean ± SEM, read-out: Plasma concentration total): 1720 ± 124 ng/mL
concentration at 3 h ([2]; plasma, oral, analyte COMPOUND 1, COMPOUND 1 10 mg/kg 3 h + LTG 10 mg/kg 1 h before stimulus, oral gavage, mean ± SEM, read-out: Plasma concentration total): 1290 ± 140 ng/mL
concentration at 3 h ([2]; plasma, oral, analyte COMPOUND 1, COMPOUND 1 10 mg/kg 3 h + VPA 100 mg/kg 1 h before stimulus, oral gavage, mean ± SEM, read-out: Plasma concentration total): 710 ± 80 ng/mL
concentration at 3 h ([2]; plasma, oral, analyte COMPOUND 1, COMPOUND 1 10 mg/kg 3 h + VPA 200 mg/kg 1 h before stimulus, oral gavage, mean ± SEM, read-out: Plasma concentration total): 1160 ± 73 ng/mL
concentration at 3 h ([2]; plasma, oral, analyte COMPOUND 1, COMPOUND 1 30 mg/kg 3 h + LEV 3 mg/kg 1 h before stimulus, oral gavage, mean ± SEM, read-out: Plasma concentration total): 4530 ± 224 ng/mL
concentration at 3 h ([2]; plasma, oral, analyte COMPOUND 1, COMPOUND 1 30 mg/kg 3 h + LEV 10 mg/kg 1 h before stimulus, oral gavage, mean ± SEM, read-out: Plasma concentration total): 4120 ± 315 ng/mL
concentration at 3 h ([2]; plasma, oral, analyte COMPOUND 1, COMPOUND 1 30 mg/kg 3 h + LEV 50 mg/kg 1 h before stimulus, oral gavage, mean ± SEM, read-out: Plasma concentration total): 3720 ± 351 ng/mL
concentration at 3 h ([2]; plasma, oral, analyte COMPOUND 1, COMPOUND 1 30 mg/kg 3 h + LTG 3 mg/kg 1 h before stimulus, oral gavage, mean ± SEM, read-out: Plasma concentration total): 4550 ± 293 ng/mL
concentration at 3 h ([2]; plasma, oral, analyte COMPOUND 1, COMPOUND 1 30 mg/kg 3 h + LTG 10 mg/kg 1 h before stimulus, oral gavage, mean ± SEM, read-out: Plasma concentration total): 3960 ± 372 ng/mL
concentration at 3 h ([2]; plasma, oral, analyte COMPOUND 1, COMPOUND 1 30 mg/kg 3 h + LTG 30 mg/kg 1 h before stimulus, oral gavage, mean ± SEM, read-out: Plasma concentration total): 2920 ± 150 ng/mL
concentration at 3 h ([2]; plasma, oral, analyte COMPOUND 1, COMPOUND 1 30 mg/kg 3 h + VPA 30 mg/kg 1 h before stimulus, oral gavage, mean ± SEM, read-out: Plasma concentration total): 3150 ± 296 ng/mL
concentration at 3 h ([2]; plasma, oral, analyte COMPOUND 1, COMPOUND 1 30 mg/kg 3 h + VPA 100 mg/kg 1 h before stimulus, oral gavage, mean ± SEM, read-out: Plasma concentration total): 2820 ± 256 ng/mL
concentration at 3 h ([2]; plasma, oral, analyte COMPOUND 1, COMPOUND 1 30 mg/kg 3 h + VPA 200 mg/kg 1 h before stimulus, oral gavage, mean ± SEM, read-out: Plasma concentration total): 2110 ± 118 ng/mL
concentration at 3 h ([2]; plasma, po, 10 mg/kg, analyte COMPOUND 1, COMPOUND 1 10 mg/kg 3 h + vehicle 1 h before stimulus, oral gavage, mean ± SEM, read-out: Plasma concentration total): 2120 ± 175 ng/mL
concentration at 3 h ([2]; plasma, po, 30 mg/kg, analyte COMPOUND 1, COMPOUND 1 30 mg/kg 3 h + vehicle 1 h before stimulus, oral gavage, mean ± SEM, read-out: Plasma concentration total): 3090 ± 297 ng/mL
Brain concentration total [2, 3]: 1895 ± 75 ng/g and 2379 ± 164 ng/g and 1965 ± 138 ng/g and 1743 ± 158 ng/g and 1435 ± 55 ng/g and 1197 ± 80 ng/g
Plasma concentration total [2, 3]: 1128 ± 98 ng/mL and 1858 ± 116 ng/mL and 1894 ± 113 ng/mL and 1785 ± 186 ng/mL and 1318 ± 77 ng/mL and 1522 ± 109 ng/mL
